“Also recorded” adds a separate entry of the source.
Columns and labels:
DIO mice = test: Plasma hormone measurements and liver RT-PCR post-IPGTT; type: in vivo, mouse
Method: Trunk blood was obtained for plasma hormone measurements using the Multiplexed Mouse Metabolic Hormone panel (Milliplex, EMD Millipore) on a Luminex FlexMap 3D instrument. Gastric emptying was measured by dissection of stomachs 30 min after an oral glucose bolus (3.0 g/kg, 10 mL/kg) in sterile saline containing 0.1 mg/mL phenol red.
Total RNA was isolated from liver samples (˜100 mg) using TRIzol (Invitrogen) and purified using an RNeasy® kit (Qiagen) and on-column DNAse treatment (Qiagen). Reverse transcription was performed with oligo(dT) primers using SuperScript III (Life Technologies). RT-PCR was performed with two primer pairs per target normalized against tubulin and beta-actin transcripts (ΔΔCT method).
Blood collection and plasma hormone measurements. Blood was collected in EDTA-coated tubes (BD Microtainer®) from trunk bleeding (˜500 μL) after CO2-euthanasia for all hormone assays. The plasma was immediately separated from red blood cells by centrifugation 10 min at 1800 g, aliquoted, frozen over dry ice and stored at −80° C. […] Values are reported as mean±S.E.M. Statistics were performed using a two-tail Student's t-test, and significance levels shown in the figures are *p<0.05 versus vehicle control group or **p<0.01 versus vehicle control group.
RT-PCR analysis of liver gluconeogenesis markers phosphoenolpyruvate carboxykinase (PEPCK) and glucose-6-phosphatase (G6Pase). Total RNA was isolated from liver samples (˜100 mg) using TRIzol® reagent (Invitrogen, 1 mL/100 mg sample), followed by spin-column purification (RNeasy® kit, Qiagen) and on-column DNAse treatment (Qiagen) according to the manufacturer's instructions. RNA concentrations were determined by UV spectrophotometry (NanoDrop). One microgram of total RNA was used for reverse transcription with oligo(dT) primers (SuperScript® III First-Strand Synthesis SuperMix, Life Technologies) according to the manufacturer's instructions. Quantitative PCR reactions included 1 μL of cDNA diluted 1:100, 0.4 μM primers, 2× SYBR Green PCR Master Mix (Invitrogen) in 25 μL total volume, and were read out by a CFX96TM Real-Time PCR Detection System (BioRad). Transcript levels were determined using two known primer pairs^18,19 for each gene of interest (Table 6), which were normalized against tubulin and beta-actin transcripts (ΔΔCT method), and expressed relative to the lowest sample. Duplicate control assays without reverse transcriptase treatment were run for each RNA preparation and primer set used. Statistics were performed using a two-tail Student's t-test, and significance levels shown in the figures are *p<0.05 versus vehicle control group or **p<0.01 versus vehicle control group.

C57BL/6J lean mice = test: CGRP-induced blood glucose excursions; type: in vivo, mouse; details: 80 mg/kg 30 min before CGRP
Method: Supraphysiological doses of CGRP induce blood glucose fluctuations via amylin receptors. […] Blood glucose was monitored at various points throughout the experiment, beginning at 45 minutes before and ending at 110 minutes after CGRP administration. The data was plotted (left panel) and the area under the curve for the 6bK-administered mice and the control mice was integrated.

[1] = test system: lean and DIO C57BL/6J mice; test: Oral glucose tolerance test (OGTT); type: in vivo, mouse; details: lean (80 mg/kg) and DIO (60 mg/kg) mice, single i.p. dose 30 min before glucose gavage 3.0 g/kg, vs vehicle
Method: Wild-type lean C57BL/6J and diet-induced obese (DIO) C57BL/6J age-matched male mice were purchased from Jackson Laboratories, and used at ages 14-16, and 24-26 weeks respectively (>20 weeks of high-fat diet for the DIO mice). GCGR^/ mice were bred from heterozygous mice and used between 11 and 17 weeks. […] Blood glucose was measured from tail nicks using AccuCheck (Aviva) meters.
In vivo studies, general information. Wild-type C57BL/6J and diet-induced obese (DIO) C57BL/6J age-matched male adult mice were purchased from Jackson Laboratories. The age range was 13 to 15 weeks for lean mice, and 24 to 26 weeks for DIO mice. All animals were individually housed on a 14-h light, 10-h dark schedule at the Biology Research Infrastructure (BRI), Harvard University. Cage enrichment included cotton bedding and a red plastic hut. […]
Glucose tolerance tests GTT and blood glucose measurements. […] Blood glucose was measured using AccuCheck® meters (Aviva) from blood droplets obtained from a small nick at the tip of the tail, at timepoints −45, 0, 15, 30, 45, 60, 90 and 120 min with reference to the time of glucose injection. The area of the blood glucose response profile curve corresponding to each animal was calculated by the trapezoid method^17, using as reference each individual baseline blood glucose measurement prior to glucose administration (t=0). […]

IDE (R&D) = IDE (R&D) (Homo sapiens, UniProt P14735); test: Yonetani-Theorell double inhibitor kinetic assay; type: biochemical; design: recombinant human IDE42-1019 (R&D Systems); purchased R&D Systems; details: 6b together with substrate mimetic Ii1
Source text: Protease assays with fluorogenic peptide substrates. […] All assay data points were obtained in duplicate.

[2] = DIO liver, 135 min post-IPGTT, vs vehicle
[3] = DIO mice, 20 minutes post-glucose injection, vs vehicle

IDE (R&D), sequence (P14735 42-1019): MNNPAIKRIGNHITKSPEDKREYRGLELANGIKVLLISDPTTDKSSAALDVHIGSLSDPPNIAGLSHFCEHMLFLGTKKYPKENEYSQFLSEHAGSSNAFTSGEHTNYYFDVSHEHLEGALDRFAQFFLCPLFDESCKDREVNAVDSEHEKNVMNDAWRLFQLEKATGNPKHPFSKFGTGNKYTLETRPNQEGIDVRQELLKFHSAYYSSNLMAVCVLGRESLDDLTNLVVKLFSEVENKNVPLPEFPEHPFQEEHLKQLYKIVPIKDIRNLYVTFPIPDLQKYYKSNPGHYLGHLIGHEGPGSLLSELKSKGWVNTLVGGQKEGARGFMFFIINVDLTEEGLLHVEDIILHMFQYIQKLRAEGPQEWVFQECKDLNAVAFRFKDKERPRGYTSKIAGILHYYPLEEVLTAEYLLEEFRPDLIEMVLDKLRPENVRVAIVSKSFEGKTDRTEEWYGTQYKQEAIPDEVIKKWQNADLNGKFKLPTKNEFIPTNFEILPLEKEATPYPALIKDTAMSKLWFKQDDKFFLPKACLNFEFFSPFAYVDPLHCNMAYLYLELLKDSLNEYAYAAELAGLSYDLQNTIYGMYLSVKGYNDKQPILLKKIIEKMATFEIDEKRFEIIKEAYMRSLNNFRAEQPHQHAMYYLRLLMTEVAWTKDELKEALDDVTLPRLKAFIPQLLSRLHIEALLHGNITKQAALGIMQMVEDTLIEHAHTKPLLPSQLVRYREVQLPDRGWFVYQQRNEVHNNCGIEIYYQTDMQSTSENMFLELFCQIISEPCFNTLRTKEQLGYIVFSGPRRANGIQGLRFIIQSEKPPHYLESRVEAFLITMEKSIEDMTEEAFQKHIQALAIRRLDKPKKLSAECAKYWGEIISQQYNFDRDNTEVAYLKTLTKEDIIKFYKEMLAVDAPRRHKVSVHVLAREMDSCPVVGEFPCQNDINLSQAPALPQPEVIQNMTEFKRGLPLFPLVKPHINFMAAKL

| Structure (SMILES) | higher glucose-6-phosphatease (G6Pase) transcript levels (DIO mice; [2]) [%] | lower phosphoenolpyruvate carboxykinase (PEPCK) transcript levels (DIO mice; [2]) [%] | liver G6Pase expression (DIO mice; DIO mice post-IPGTT, vs control) | plasma amylin levels (DIO mice; [3]) | plasma glucagon levels (DIO mice; [3]) | plasma insulin levels (DIO mice; [3]) | plasma glucagon levels (DIO mice; DIO mice, 130 min post-injection, hyperglycemic rebound) | CGRP-induced blood glucose excursions (C57BL/6J lean mice) | oral glucose tolerance [1] | mode of double inhibition with Ii1 (IDE (R&D)) |
| --- | --- | --- | --- | --- | --- | --- | --- | --- | --- | --- |
| NCCCC[C@@H]1NC(=O)/C=C/C(=O)N[C@H](C(N)=O)CCCCNC(=O)[C@@H](Cc2ccc(C(=O)c3ccccc3)cc2)NC(=O)[C@H](CC2CCCCC2)NC1=O [Compound 6bK] | 50 | 30 | elevated | elevated | unchanged | elevated | above 200 pg/mL | augments | significantly improved; also recorded: improved glucose tolerance | – |
| NC(=O)CCC1NC(=O)C=CC(=O)NC(C(N)=O)CCCCNC(=O)C(Cc2ccc(C(=O)c3ccccc3)cc2)NC(=O)C(CC2CCCCC2)NC1=O (stereo not shown) [Compound 6b] | – | – | – | – | – | – | – | – | – | synergistic |

Reference: patent US20160282364A1, “ASSAY FOR INSULIN-DEGRADING ENZYME (IDE) INHIBITORS” (PRESIDENT AND FELLOWS OF HARVARD COLLEGE, priority 2013, published 2016)
